Assay results reported in patent US4036846A, “3-Hydroxy and 3-acetoxy-6-triphenyl-methylaminopenams” (priority 1976, dated 1977).
“And” between values parts separate entries of the source, which are not always exact repeats. Equal values may be shown once. Where a name gives a salt, the structure may show the parent alone. Read-outs that look alike come from different tables or passages of the source.

Key:
Assay in all cases: microbe, parasite or virus in culture
[1] = system: Staph. aureus 01A005; format: cell-based, Staphlococcus aureus; conditions: brain-heart infusion agar, 37° C., anaerobic, sodium salts, separate Test Nos. 1-3; for MIC: Staphylococcus aureus
[2] = system: Staph. aureus 01A006; format: cell-based, Staphlococcus aureus; conditions: brain-heart infusion agar, 37° C., anaerobic, sodium salts, separate Test Nos. 1-3; for MIC: Staphylococcus aureus
[3] = system: Strep. zoo. 02H001; format: cell-based, Streptococcus zoobacter; conditions: brain-heart infusion agar, 37° C., anaerobic, sodium salts, separate Test Nos. 1-3; for MIC: Streptococcus
[4] = system: Strep. equi. 02I001; format: cell-based, Streptococcus equis; conditions: brain-heart infusion agar, 37° C., anaerobic, sodium salts, separate Test Nos. 1-3

| Structure (SMILES) | MIC ([1]; Staph. aureus 01A005, read-out: MIC (minimal inhibitory concentration)) [µg/mL] | MIC ([2]; Staph. aureus 01A006, read-out: MIC (minimal inhibitory concentration)) [µg/mL] | MIC ([3]; Strep. zoo. 02H001, read-out: MIC (minimal inhibitory concentration)) [µg/mL] | MIC (minimal inhibitory concentration) ([1]; Staph. aureus 01A005, sodium salt) [µg/mL] | MIC ([1]; 01A005, read-out: MIC (minimal inhibitory concentration), Staph. aureus 01A005) [µg/mL] | MIC (minimal inhibitory concentration) ([2]; Staph. aureus 01A006, sodium salt) [µg/mL] | MIC ([2]; 01A006, read-out: MIC (minimal inhibitory concentration), Staph. aureus 01A006) [µg/mL] | MIC (minimal inhibitory concentration) ([4]; Strep. equi. 02I001, sodium salt) [µg/mL] | MIC ([4]; Streptococcus equi, read-out: MIC (minimal inhibitory concentration), Strep. equi. 02I001) [µg/mL] | MIC (minimal inhibitory concentration) ([3]; Strep. zoo. 02H001, sodium salt) | MIC ([3]; read-out: MIC (minimal inhibitory concentration), Strep. zoo. 02H001) [µg/mL] |
| --- | --- | --- | --- | --- | --- | --- | --- | --- | --- | --- | --- |
| COP(=O)(O)C1N2C(=O)C(NC(=O)COc3ccccc3)C2SC1(C)C (centres unmarked) [6-(2-Phenoxyacetamido)-2,2-dimethyl-3-(0-methylphosphono)penam, sodium salt] | 200 | 200 | > 200 |  |  |  |  |  |  |  |  |
| CC1(C)S[C@@H]2C(NC(=O)COc3ccccc3)C(=O)N2C1P(=O)(O)O.[Na] (some centres unmarked) [6-(2-Phenoxyacetamido)-2,2-dimethyl-3-phosphonopenam, sodium salt] |  |  |  | > 200 | 200 | > 200 | 200 | 100 | > 200 | 100 µg/mL and 200 µg/mL | > 200 |
